In US7910723B2, “IG20 splice variants therapeutics for cancer” (The Board of Trustees of the University of Illinois, priority 2006, dated 2011):

How the values were obtained:
Akt = Akt (Homo sapiens, UniProt P31749); assay: Phosphorylation of MADD in vitro by Akt (kinase assay); assay type: biochemical; conditions: GST-tagged recombinant MADD, rAkt, 1 h at 30° C.
Experimental: (A) In vitro phosphorylation of rMADD by Akt. GST-wtMADD or -MADD mutants were expressed in bacteria, purified, and then incubated with rAkt and γ[^32P] ATP. After 1 h incubation at 30° C., the products were resolved on SDS-PAGE and ^32P-labeled proteins were visualized by autoradiography. (B) MADD is labeled by [^32P]orthophosphate in vivo. HEK293 cells were transfected with wtMADD or MADD mutant constructs. Twenty-four hours after transfection cells were incubated with 0.3 mCi/ml [32P]orthophosphate for 6 h. MADD was immunoprecipitated with an anti-YFP antibody. The precipitated MADD was separated by SDS-PAGE, transferred to a nitrocellulose membrane, and subjected to autoradiography. Loaded MADD was visualized by staining the same membrane with an anti-YFP antibody. (C) HEK293 cells were transfected with cDNAs for wtMADD or MADD mutants and. 36 h later the cells were harvested for immunoblotting using the anti-phospho-S-70, -T-173 or -T-1041 antibodies. An anti-YFP antibody was used to detect exogenous MADD. (D) HEK293 cells were transfected with wtMADD and 24 hours later cells were serum starved for 20 h. Subsequently, they were treated with LY (10 μM) for 1 h and/or IGF-1 (150 ng/ml) for 20 minutes. The cell lysates were immunoblotted and probed with anti phospho-specific antibodies or an anti-YFP antibody. (E) HEK293 cells were co-transfected with wtMADD along with dominant negative Akt (DN-Akt) or the empty vector pcDNA3.1 (pcDNA). Immunoblots were probed with the anti phospho-specific antibodies or an anti-YFP antibody. (F) HeLa cells were serum starved for 20 h, treated with LY (10 μM) for 1 h, IGF-1 (150 ng/ml) for 20 minutes. Immunoblot was probed with the anti phospho-specific antibodies or an anti-MADD antibody.
To test whether MADD is a substrate of Akt, an in vitro assay was employed to test whether Akt could directly phosphorylate MADD. […] It was tested whether MADD could be phosphorylated in vivo. […] Second, three antibodies that specifically reacted with phosphorylated S70 (anti-phospho S70), T173 (anti-phospho T173) or T1041 (anti-phospho T1041) were raised, respectively. The phosphopeptides, CRQRRMpSLRDDTS (SEQ ID NO: 7) (S-70), GSRSRNSpTLTSL (SEQ ID NO: 8) (T-173), and KRKRSPpTESVNTP (SEQ ID NO: 9) (T-1041) were used to immunize the rabbits. Antisera were depleted of antibodies that recognize non-phosphorylated MADD by negatively selecting the antibodies using an identical non-phosphorylated peptide affinity column. Antibodies in the flow through were tested to ensure that they specifically bind only to the corresponding phosphorylated peptide and not the non-phosphorylated couterpart. […]

HEK293 cells = assay: Cell death of HEK293 cells transfected with MADD constructs, Trypan Blue exclusion; assay type: cell-based; conditions: HEK293, 48 h after transfection
Experimental: (A) HEK293 cells were transfected with various MADD constructs. Cell death was determined 48 h after transfection by Trypan Blue exclusion. *p<0.05 vs control. (B) Apoptosis analyzed by Cell Death Detection ELISA. *p<0.05 vs control. (C) Phosphorylatable but not the nonphosphorylatable MADD could rescue cell death upon endogenous MADD knockdown. HeLa cells were infected with the lentivirus harboring MADD shRNAi (RNAi) or its scrambled form (Scrambled RNAi). 24 h after infection, cells were transfected with the constructs of wtMADD-R or MADD3A-R. 48 h after transfection, cell death was determined by Trypan Blue exclusion. *p<0.05 vs RNAi alone. (D) Inhibition of Akt or PI3K could abolish the ability of wtMADD-R to rescue cell death upon endogenous MADD knockdown. HeLa cells were infected with the lentivirus harboring MADD shRNA (RNAi). 24 h after infection, cells were infected with the adenovirus harboring DN-Akt, and transfected with wtMADD-R. LY (10 μM) was added 6 h after transfection. 48 h after transfection, cell death was determined by Trypan Blue exclusion. Data are expressed as the mean±SEM of three independent experiments.
To see whether phosphorylation is required for the prosurvival function of MADD, WT and mutant MADD were tested. […] Since knockdown of endogenous MADD can cause cell death, it was tested whether the wtMADD or MADD3A could rescue this cell death. Only the shRNA resistant wtMADD (wtMADD-R) and not the MADD3A-R could rescue cell death upon endogenous MADD knockdown (FIG. 14C), which was abrogated in the presence either LY or DN-Akt (FIG. 14D). Taken together, the prosurvival function of MADD is dependent upon its phosphorylation by Akt.
Cell culture and viability assay. HEK293, HeLa and PA-1 cells were cultured. Cell death was determined by Trypan Blue exclusion and the numbers of Trypan Blue-positive and -negative cells were counted using a haemocytometer.

ERK1/2 = assay: TNF-α induced ERK phosphorylation in HeLa cells (immunoblot); assay type: cell-based; conditions: TNF-α 50 ng/mL, untransduced
Experimental: (A) Time-kinetics of TNF-α induced ERK activation. HeLa cells (3×10^6 per 100 mm dish) were serum starved for 6 h and were either left untreated or treated with TNF-α (50 ng/mL) for different time periods as indicated. Cell lysates were analyzed for phosphorylated ERK or total ERK by immunoblot. (B) Down-modulation of endogenous IG20-SVs in HeLa cells. One microgram of total RNA obtained from HeLa cells 48 h post-transduction was used for reverse-transcription-polymerase chain reaction. The products were separated on a 2% agarose gel. Amplification of all four IG20-SVs was done using F2-B2 primers. […] HeLa cells (3×10^6 per 100 mm dish) were either untransduced or transduced with different lentiviruses expressing SCR, Mid and 13L ShRNA for different time periods as indicated. At the end of each time period, the cells were serum starved for 6 h and were either left untreated or treated with TNF-α (50 ng/mL) for 15 min. Cell lysates were analyzed for phosphorylated ERK or total ERK by immunoblot. The data shown is representative of at least 3 independent experiments.
(A) HeLa cells (3×10^6 per 100 mm dish) were transduced with different lentiviruses expressing SCR, Mid and 16E ShRNA for 48 h. The cells were then serum starved for 6 h and were either left untreated or treated with TNF-α (50 ng/mL) for 15 min. Cell lysates were analyzed for phosphorylated ERK or total ERK by immunoblot. (B) PA-1 cells (5×10^6 per 100 mm dish) were transduced with different lentiviruses expressing SCR, Mid and 13L ShRNA for 48 h. The cells were then serum starved for 6 h and were either left unstimulated or stimulated with TNF-α (50 ng/mL) for 15 min. Cell lysates were analyzed for phosphorylated ERK or total ERK by immunoblot. […] Cell lysates were analyzed for phosphorylated ERK or total ERK by immunoblot. […]
To gain insight into the time kinetics of TNF-α induced ERK phosphorylation, HeLa cells were treated with TNF-α (50 ng/mL) for different time periods. […] Down-modulation of IG20 transcripts upon treatment with different ShRNA expressing lentiviruses was monitored by RT-PCR. […]

DR4 = assay: Association of exogenous MADD with DR4 in HEK293 cells (immunoprecipitation); assay type: cell-based
Experimental: (A) Phosphorylation status of MADD could influence its binding to DR4. HEK293 cells were transfected with wtMADD or MADD mutants. 36 h after transfection, the cells were harvested for immunoprecipitation using an anti-DR4 antibody followed by immunoblotting using an anti-YFP antibody to detect exogenous MADD. The membrane was reprobed with an anti-DR4 antibody to show the protein loading. (B) PI3K can influence the association of exogenous MADD with DR4. HEK293 cells were transfected with wtMADD. Twenty four hours after transfection, the cells were serum starved for 20 h. Further, they were treated with LY (10 μM) for 1 h, IGF-1 (150 ng/ml) for 20 minutes. Immunoprecipitation using an anti-DR4 antibody was followed by immunoblotting using anti-YFP or anti-DR4 antibody. (C) Akt can influence exogenous MADD association with DR4. HEK293 cells were co-transfected with wtMADD along with DN-Akt or the empty vector pcDNA3.1 (pcDNA). Thirty six hours after transfection, the cells were harvested for immunoprecipitation using anti-DR4 antibody followed by immunoblotting with an anti-YFP or an anti-DR4 antibody. (D) PI3K can influence the association of endogenous MADD with DR4. HeLa cells were serum starved for 20 h, then treated with LY (10 μM) for 1 h, IGF-1 (150 ng/ml) for 20 minutes. Immunoprecipitation using an anti-DR4 antibody was followed by immunoblotting with an anti-MADD or an anti-DR4 antibody. (E) Akt can influence the association of endogenous MADD with DR4. HeLa cells were transfected with DN-Akt or pcDNA. Thirty six hours after transfection, the cells were collected for immunoprecipitation using an anti-DR4 antibody followed by immunoblotting with an anti-MADD antibody.
MADD can bind to DR4 and thereby block the activation of the extrinsic apoptotic pathway. […] Stimulation of PI3K by IGF-1 increased, while inhibition by LY reduced, the association between wtMADD and DR4 (FIG. 15B). […] This interaction was reduced in the presence of LY (FIG. 15D) or DN-Akt (FIG. 15E).
Immunoprecipitation. Immunoprecipitations were performed using standard procedures. The samples were precleared with 10% (vol/vol) Protein-A agarose (Roche) for 1 h on a rocking platform. Specific antibodies were added and rocked for 1 h. Immunoprecipitates were captured by incubating with 10% (vol/vol) Protein-A agarose for an hour. The agarose beads were spun down and washed three times with NET/NP40 buffer (150 mM NaCl, 2 mM EDTA, 50 mM Tris-HCl pH 7.5, 0.1% NP-40). The antigens were released and denatured by adding SDS sample buffer. Immunoblots were prepared and analysed as described above.

Akt, sequence (P31749 whole entry): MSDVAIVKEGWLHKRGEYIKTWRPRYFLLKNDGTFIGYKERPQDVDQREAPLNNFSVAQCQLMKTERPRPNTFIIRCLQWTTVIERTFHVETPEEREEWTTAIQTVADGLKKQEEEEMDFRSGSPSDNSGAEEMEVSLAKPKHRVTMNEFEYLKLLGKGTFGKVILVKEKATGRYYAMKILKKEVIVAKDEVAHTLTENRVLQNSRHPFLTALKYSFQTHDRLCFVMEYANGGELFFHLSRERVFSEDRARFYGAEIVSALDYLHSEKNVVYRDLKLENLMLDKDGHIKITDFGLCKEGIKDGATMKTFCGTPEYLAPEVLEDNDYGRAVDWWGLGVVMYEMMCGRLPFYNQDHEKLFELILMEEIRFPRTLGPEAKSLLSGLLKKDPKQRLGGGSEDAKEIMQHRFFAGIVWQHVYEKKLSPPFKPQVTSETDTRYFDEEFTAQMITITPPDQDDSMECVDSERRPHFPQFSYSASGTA

| Substance | In vitro phosphorylation by Akt (Akt) | Cell death upon enforced expression (HEK293 cells) | Time of maximum ERK phosphorylation (ERK1/2) [min] | Association of exogenous MADD with DR4 (DR4) |
| --- | --- | --- | --- | --- |
| MADD173A: MADD mutant T173A | reduced or absent | minimal effects on cell death |  |  |
| MADD70A: MADD mutant S70A | reduced or absent | minimal effects on cell death |  |  |
| MADD1041A: MADD mutant T1041A | reduced or absent | minimal effects on cell death |  |  |
| TNF-α [reference compound] |  |  | 15 |  |
| wtMADD: recombinant wild-type MADD | phosphorylated by Akt | could not induce cell death |  | can associate with DR4 |
| MADD3A: MADD mutant, all three residues (S70, T173, T1041) converted to alanine |  | significant cell death |  | almost non-existant |
